# Test results taken from US10555987B2, “GHRH agonists for the treatment of ischemic disorders” (UNIVERSITY OF MIAMI, priority 2012, dated 2020).
# Non-standard residues stand in square brackets, D forms with d. Residues, ends and D or L forms follow the SMILES beside them. *: point of attachment. Desaminotyrosyl = O=C(CCc1ccc(O)cc1)*; Agmatine = N=C(N)NCCCCN*; Nle = CCCC[C@H](N)C(=O)O; Orn = NCCC[C@H](N)C(=O)O; Abu = CC[C@H](N)C(=O)O
# Molecular target: T1, GHRH receptor (Homo sapiens, UniProt Q02643)
# T1 sequence (Q02643 23-423): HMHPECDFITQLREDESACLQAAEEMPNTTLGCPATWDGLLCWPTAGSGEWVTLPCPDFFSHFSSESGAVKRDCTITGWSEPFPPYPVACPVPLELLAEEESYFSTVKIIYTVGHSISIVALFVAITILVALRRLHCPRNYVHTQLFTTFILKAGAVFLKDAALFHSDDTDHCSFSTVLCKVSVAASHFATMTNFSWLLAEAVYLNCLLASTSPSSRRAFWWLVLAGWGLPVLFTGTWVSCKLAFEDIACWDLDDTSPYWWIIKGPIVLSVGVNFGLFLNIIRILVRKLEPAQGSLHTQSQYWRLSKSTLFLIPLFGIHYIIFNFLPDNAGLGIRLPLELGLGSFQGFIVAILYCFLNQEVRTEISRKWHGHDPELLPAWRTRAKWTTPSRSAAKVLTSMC
# Test: GHRH receptor binding, competition with 125I-labeled [His1,Nle27]hGHRH(1-32)NH2, human pituitary membrane homogenates (Table 6)
# Parameters: Normal human pituitaries were purchased from the National Hormone and Peptide Program; tissue National Hormone and Peptide Program (A.F. Parlow, Harbor-UCLA Medical Center, Torrance, Calif.); host or cells: normal human pituitary, membrane fraction
# From the text: Normal human pituitaries were purchased from the National Hormone and Peptide Program (A.F. Parlow, Los Angeles, County Harbor-UCLA Medical Center, Torrance, Calif.).
compound,measurement,setting,value
"CCCC[C@H](NC(=O)[C@@H](NC(=O)[C@H](CC(=O)O)NC(=O)[C@H](CCC(N)=O)NC(=O)[C@H](CC(C)C)NC(=O)[C@H](CC(C)C)NC(=O)[C@H](CCCN)NC(=O)[C@H](CCCNC(=N)N)NC(=O)[C@H](C)NC(=O)[C@H](CO)NC(=O)[C@H](CC(C)C)NC(=O)[C@H](CCC(N)=O)NC(=O)[C@H](CC)NC(=O)[C@H](CC(C)C)NC(=O)[C@@H](NC(=O)[C@H](CCCN)NC(=O)[C@H](CCCNC(=N)N)NC(=O)[C@H](Cc1ccc(O)cc1)NC(=O)[C@H](CO)NC(=O)[C@H](CCC(N)=O)NC(=O)[C@@H](NC(=O)[C@H](Cc1ccccc1)NC(=O)[C@@H](NC(=O)[C@H](C)NC(=O)[C@H](CC(=O)O)NC(=O)[C@H](C)NC(=O)CCc1ccc(O)cc1)[C@@H](C)CC)[C@@H](C)O)C(C)C)[C@@H](C)CC)C(=O)N[C@@H](CC(=O)O)C(=O)NCCCCNC(=N)N [JI-38, [Dat^1, Gln^8, Orn^12,21, Abu^15, Nle^27, Asp^28, Agm^29]hGHRH(1-29)NH2, reference compound] (Desaminotyrosyl-ADAIFTQSYR[Orn]VL[Abu]QLSAR[Orn]LLQDI[Nle]D-Agmatine)",IC50,"125I-[His1,Nle27]hGHRH(1-32)NH2, human pituitary membranes, Table 6",1.95 nM
same,Relative affinity (Binding potency) vs GHRH,"GHRH(1-29) = 1, Table 6",3.03
same,Relative affinity (Binding potency) vs JI-38,"JI-38 = 1, Table 6",1
